Article PMC5144071, “Functional characterization of aconitase X as a cis-3-hydroxy-L-proline dehydratase” (Scientific Reports, 2016)

Legend:
[1] = target: T1, PaLhpI (aconitase X, AcnX Type I; cis-3-hydroxy-L-proline dehydratase) (Pseudomonas aeruginosa, UniProt Q9I485); assay: substrate turnover by purified enzyme (HPLC/amino acid analyzer, 1H NMR, coupled assay); format: biochemical; parameters: gene lhpI; N-terminal (His)6-tagged recombinant protein
AtLhpI (AcnX Type I) = target: T2, AtLhpI (AcnX Type I) (Agrobacterium fabrum, UniProt A9CH00); assay: substrate turnover by purified enzyme, Lineweaver-Burk kinetics; format: biochemical
T2 construct: gene lhpI; N-terminal (His)6-tagged recombinant protein
T2 sequence (A9CH00 1-569): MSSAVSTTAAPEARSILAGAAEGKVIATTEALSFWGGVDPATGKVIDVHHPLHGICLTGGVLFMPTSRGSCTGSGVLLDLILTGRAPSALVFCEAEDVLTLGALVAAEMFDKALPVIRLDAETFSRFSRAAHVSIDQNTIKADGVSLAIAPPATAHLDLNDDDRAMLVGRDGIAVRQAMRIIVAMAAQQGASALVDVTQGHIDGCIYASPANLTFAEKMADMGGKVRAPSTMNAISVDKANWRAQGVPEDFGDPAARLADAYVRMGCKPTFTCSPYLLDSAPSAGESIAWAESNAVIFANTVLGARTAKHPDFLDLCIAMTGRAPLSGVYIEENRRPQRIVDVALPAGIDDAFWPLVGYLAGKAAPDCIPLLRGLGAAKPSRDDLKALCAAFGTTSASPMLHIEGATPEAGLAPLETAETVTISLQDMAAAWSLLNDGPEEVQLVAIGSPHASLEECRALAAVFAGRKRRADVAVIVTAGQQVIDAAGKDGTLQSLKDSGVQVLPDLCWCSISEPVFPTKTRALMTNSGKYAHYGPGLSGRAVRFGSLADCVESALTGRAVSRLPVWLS

TrLhpI (AcnX Type I) = target: T3, TrLhpI (AcnX Type I) (Trichoderma reesei, UniProt G0REW7); assay: substrate turnover by purified enzyme (amino acid analyzer, Lineweaver-Burk kinetics); format: biochemical
T3 construct: gene lhpI; N-terminal (His)6-tagged recombinant protein
T3 sequence (G0REW7 1-596): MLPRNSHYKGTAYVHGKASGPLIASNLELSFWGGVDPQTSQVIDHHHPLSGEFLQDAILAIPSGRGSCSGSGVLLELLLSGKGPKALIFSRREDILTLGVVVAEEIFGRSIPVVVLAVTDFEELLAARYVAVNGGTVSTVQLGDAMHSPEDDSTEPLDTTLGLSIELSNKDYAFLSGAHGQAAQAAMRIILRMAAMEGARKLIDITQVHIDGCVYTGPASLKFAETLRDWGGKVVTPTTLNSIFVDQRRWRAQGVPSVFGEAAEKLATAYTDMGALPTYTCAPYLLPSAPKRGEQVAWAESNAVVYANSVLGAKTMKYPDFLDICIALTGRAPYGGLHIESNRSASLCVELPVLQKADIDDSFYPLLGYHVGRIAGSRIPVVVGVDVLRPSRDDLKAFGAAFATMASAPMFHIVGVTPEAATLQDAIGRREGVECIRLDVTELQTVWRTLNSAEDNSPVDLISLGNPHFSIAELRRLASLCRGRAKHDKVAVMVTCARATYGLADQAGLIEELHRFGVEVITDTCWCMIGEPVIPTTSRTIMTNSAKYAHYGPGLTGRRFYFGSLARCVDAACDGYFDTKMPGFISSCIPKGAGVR

PaLhpL = target: T4, PaLhpL (Pseudomonas aeruginosa, UniProt Q9I489); assay: bifunctional dehydratase and 2-epimerase activity (details in supplement, Fig. S6); format: biochemical
T4 construct: gene lhpL
T4 sequence (Q9I489 1-344): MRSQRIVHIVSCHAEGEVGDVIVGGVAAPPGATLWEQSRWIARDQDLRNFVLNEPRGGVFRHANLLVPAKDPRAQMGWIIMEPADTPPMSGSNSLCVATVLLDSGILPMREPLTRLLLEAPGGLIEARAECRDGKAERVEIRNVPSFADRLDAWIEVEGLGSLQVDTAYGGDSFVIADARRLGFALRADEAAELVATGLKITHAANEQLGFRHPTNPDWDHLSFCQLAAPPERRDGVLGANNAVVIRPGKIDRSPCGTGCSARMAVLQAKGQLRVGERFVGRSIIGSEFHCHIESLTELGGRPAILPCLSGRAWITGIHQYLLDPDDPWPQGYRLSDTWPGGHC

[2] = target: T1, PaLhpI (aconitase X, AcnX Type I; cis-3-hydroxy-L-proline dehydratase); assay: substrate turnover by purified enzyme (HPLC), coupled with reductase; format: biochemical; parameters: gene lhpI; N-terminal (His)6-tagged recombinant protein
[3] = target: T1, PaLhpI (aconitase X, AcnX Type I; cis-3-hydroxy-L-proline dehydratase); parameters: gene lhpI

T1 sequence (Q9I485 whole entry): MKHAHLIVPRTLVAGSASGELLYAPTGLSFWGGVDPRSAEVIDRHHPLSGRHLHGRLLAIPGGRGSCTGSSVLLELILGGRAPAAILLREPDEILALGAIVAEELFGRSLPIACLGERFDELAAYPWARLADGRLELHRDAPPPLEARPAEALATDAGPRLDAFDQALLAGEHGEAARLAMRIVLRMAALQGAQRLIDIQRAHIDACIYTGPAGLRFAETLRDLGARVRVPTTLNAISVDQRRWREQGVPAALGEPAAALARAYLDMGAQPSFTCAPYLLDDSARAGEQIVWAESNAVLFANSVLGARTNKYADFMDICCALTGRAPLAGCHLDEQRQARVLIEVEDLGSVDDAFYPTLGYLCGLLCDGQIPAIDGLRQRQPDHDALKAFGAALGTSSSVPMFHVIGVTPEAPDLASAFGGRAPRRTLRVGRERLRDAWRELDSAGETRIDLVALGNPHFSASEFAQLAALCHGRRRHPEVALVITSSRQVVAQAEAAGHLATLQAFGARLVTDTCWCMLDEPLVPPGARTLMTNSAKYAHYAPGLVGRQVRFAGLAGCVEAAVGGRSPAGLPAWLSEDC

O=C(O)[C@H]1NCC[C@H]1O [cis-3-hydroxy-L-proline]
substrate turnover by purified enzyme (HPLC/amino acid analyzer, 1H NMR, coupled) [1]: 39.5 µmol/min/mg
substrate turnover by purified enzyme, Lineweaver-Burk kinetics (AtLhpI (AcnX Type I)): among eight proline derivatives (Fig. S1), only cis-3-hydroxy-L-proline was consumed in a time-dependent manner by both proteins
substrate turnover by purified enzyme (amino acid analyzer, Lineweaver-Burk kine) (TrLhpI (AcnX Type I)): 3.75 µmol/min/mg

O=C(O)[C@H]1NCC[C@@H]1O [trans-3-hydroxy-L-proline]
bifunctional dehydratase and 2-epimerase activity (details in supplement, Fig. S) (PaLhpL): PaLhpL gene (PA1255; Fig. 1d) in the L-hydroxyproline gene cluster encodes a bifunctional dehydratase and 2-epimerase toward trans-3-hydroxy-L-proline

O=C(O)[C@H]1NC[C@@H](O)[C@H]1O [2,3-cis-3,4-cis-3,4-dihydroxy-L-proline]
substrate turnover by purified enzyme (HPLC), coupled with reductase [2]: 0.130 µmol/min/mg

O=C(O)c1ccc[nH]1 [pyrrole-2-carboxylate]
IC50 [3]: ~ 440-fold that of Cd^2+ (2.05 × 10^−3 mM)
